Assay results published in US7041446B2, “Labeled protein and its producing method, labeling compound to be used in the method, and method for analyzing function of genes” (priority 1998, dated 2006).

How the values were obtained:
[1] = test system: C-terminal of thioredoxin; test: Labeling of translated protein in cell-free transcription-translation system of E. coli; assay type: biochemical; settings: for linkage to the C-terminal of thioredoxin: cell-free transcription-translation system of E. coli
Description: rCpPur (30 pmol) was phosphorylated by T4 polynucleotide kinase (10 units) in the presence of γ-^33P-ATP (9.25 MBq). The reaction was carried out under the condition of 37° C. for 1 hour. After the reaction was over, the reaction mixture was heated at 70° C. for 20 minutes to inactivate the enzyme.
Labeling reaction was carried out using a cell-free transcription-translation system of E. coli. The reaction mixture (25 μl) of the cell-free transcription-translation system of E. coli had the following composition: 7.5 μl of E. coli S30 extract (containing T7 RNA polymerase), 10 μl of E. coli S30 premix, 2.5 μl of an amino acid mixed solution, 1 μl of an RNase inhibitor, 1 μg of plasmid (thioredoxin), and 0.0003 to 0.3 μM (final concentration) of the ^33P-rCpPur described above. As a control, the reaction was carried out also in a system containing ^35S-methionine (1.2 μM). After the reaction was carried out at 37° C. for 30 minutes, precipitation was performed with acetone. A buffer solution (pH 8) containing 1% SDS was added to the precipitate, and then heated at 90° C. for 5 minutes for dissolution, separated by SDS-15% polyacrylamide gel electrophoresis, and analyzed using an image analyzer (Fuji Photo Film, BAS 2000). […] When the concentration of ^33P-rCpPur was 0.3 μM, a distinct band corresponding to the full-length thioredoxin was detected at the position of apparent molecular weight of 12 kDa. […] The band with an apparent molecular weight of 12 kDa was detected even when labeled with ^35S-methionine (final concentration: 1.2 μM) (FIG. 3).
Fluorescent labeling of a protein by a cell-free transcription-translation system of E. coli in the presence of Fluorpur and Fluorthiopur was examined. […] After the reaction was carried out at 37° C. for 30 minutes, precipitation was performed with acetone. A buffer solution (pH 8) containing 1% SDS was added to the precipitate, then heated at 90° C. for 5 minutes for dissolution, separated by SDS-15% polyacrylamide gel electrophoresis, and detected for fluorescent bands of protein using a fluorescent gel scanner (Fluor Imager 585, Molecular Dynamics). Measurement was made at an excitation wavelength of 488 nm and an emission wavelength of 520 nm. FIGS. 4A, 4B and 4C show the results of fluorescent labeling of thioredoxin with Fluorpur and Fluorthiopur. For both Fluorpur and Fluorthiopur in a concentration ranges of 0.36 to 1.44 μM, fluorescent bands were detected at the position of apparent molecular weight of 12 kDa indicated by an arrow (FIGS. 4A and 4B).

[2] = test system: protein synthesis of animal cells; settings: cited from earlier work
[3] = test system: protein synthesis of bacteria; settings: cited from earlier work
[4] = test system: full-length protein of thioredoxin; test: Labeling of thioredoxin in cell-free transcription-translation system containing nuclease treated rabbit reticulocyte lysate; assay type: biochemical, E. coli
Description: (§1) The fluorescent labeling of the full-length protein of thioredoxin with Fluorpur and Fluorthiopur was confirmed also in a cell-free transcription-translation system containing nuclease treated rabbit reticulocyte lysate or wheat germ lysate. The respective optimal concentrations of Fluorpur and Fluorthiopur necessary for fluorescent labeling were 0.3 to 50 μM in the system containing nuclease treated rabbit reticulocyte lysate and 10 to 50 μM in the case of the system containing wheat germ lysate.

[5] = test system: full-length protein of thioredoxin; test: Labeling of thioredoxin in cell-free transcription-translation system containing wheat germ lysate; assay type: biochemical, E. coli
Description: as §1

Compound | band with an apparent molecular weight of 12 kDa ([1]; control label, final concentration 1.2 μM) | inhibition of protein synthesis [2] | inhibition of protein synthesis [3] | labeling of the full-length protein of thioredoxin [4] | labeling of the full-length protein of thioredoxin [5] | linkage to the C-terminal of thioredoxin [1] | incorporation compared with Fluorpur ([1]; fluorescent labeling of thioredoxin, E. coli system)
CSCC[C@H](N)C(=O)O [^35S-methionine, reference compound] | detected |  |  |  |  |  | 
COc1ccc(C[C@H](N)C(=O)N[C@H]2[C@@H](O)[C@H](n3cnc4c(N(C)C)ncnc43)O[C@@H]2CO)cc1 [puromycin, 3′-[α-amino-p-methoxyhydro-cinnamamido]-3′-deoxy-N,N′-dimethyladenosine] |  | inhibit the protein synthesis | inhibit the protein synthesis |  |  |  | 
fluoresceinylphosphopuromycin [Fluorpur] |  |  |  | can be confirmed | can be confirmed | linked to the C-terminal of the full-length protein | 
fluoresceinylthiophophopuromycin [Fluorthiopur] |  |  |  | can be confirmed | can be confirmed | linked to the C-terminal of the full-length protein | more or less efficiently
